In publication PMC12167813, “Characterization of a two-component kinase that initiates the bacterial catabolism of hydroxyphenylethanones” (The Journal of Biological Chemistry, 2025):

Assays:
[1] = test system: T1, HpeHI; test: continuous spectrophotometric assay, low-concentration rates verified by LC-MS; format: biochemical, Rhodococcus rhodochrous; details: apparent; 500 μM ATP, 2.0 mM MgCl2, 25 μM MnCl2, HEPES pH 7.5, I = 20 mM, 30 °C; 0.05 μM HpeH, 0.10 μM HpeI; upper bound
T1 construct: gene hpeH; two components made separately in E. coli, N-terminal His tags cut with TEV; phenolic site in HpeH
Source text: continuous spectrophotometric assay, low-concentration rates verified by LC-MS on HpeHI

[2] = test system: T1, HpeHI; test: continuous spectrophotometric assay; format: biochemical, Rhodococcus rhodochrous; details: apparent; 500 μM ATP, 2.0 mM MgCl2, 25 μM MnCl2, HEPES pH 7.5, I = 20 mM, 30 °C; 0.05 μM HpeH, 0.10 μM HpeI
Source text: continuous spectrophotometric assay on HpeHI

[3] = target: HpeH (Rhodococcus rhodochrous GD02); test: mass photometry; Refeyn TwoMP; samples at 20 nM in the standard assay buffer (low ionic strength); acquisition 60 s
[4] = target: HpeH (Rhodococcus rhodochrous GD02); test: SEC-MALS; Superdex 200; 50 µl of HpeH (12.5 µM), HpeI (25 µM) or both, incubated at room temperature for at least 20 min; 10 mM Hepes pH 7.5, 0.50 mM TCEP, 2.0 mM MgCl2, 0.25 mM MnCl2, with 20 mM or 200 mM NaCl; also with AMP-PNP

Row | Compound | Km [1] | Km [2] | further results
1 | CC(=O)c1ccc(O)cc1 [4-hydroxyacetophenone] | < 300 nM |  | 
2 | O=Cc1ccc(O)cc1 [4-hydroxybenzaldehyde] |  | 9.6 µM | 
3 | COc1cc(C(C)=O)ccc1O [acetovanillone] | < 300 nM |  | 
4 | COc1cc(C=O)ccc1O [vanillin] |  | 10.3 µM | 
5 | HpeH (enzyme) |  |  | stoichiometry N [3]: 2; stoichiometry N [4]: 2
